Experiments:
[1] = target: Carbonic anhydrase 6 (Homo sapiens, UniProt P23280); assay: Inhibition of human carbonic anhydrase 6 preincubated for 15 mins by CO2 hydration stopped-flow assay
[2] = target: Carbonic anhydrase 5B, mitochondrial (Homo sapiens, UniProt Q9Y2D0)
Description: Inhibition of human carbonic anhydrase 5B preincubated for 15 mins by CO2 hydration stopped-flow assay

[3] = target: Carbonic anhydrase 9 (Homo sapiens, UniProt Q16790); assay: Inhibition of human carbonic anhydrase 9 preincubated for 15 mins by CO2 hydration stopped-flow assay
[4] = target: Carbonic anhydrase 3 (Homo sapiens, UniProt P07451); assay: Inhibition of human carbonic anhydrase 3 preincubated for 15 mins by CO2 hydration stopped-flow assay
Sequence of Carbonic anhydrase 3 (P07451 whole entry): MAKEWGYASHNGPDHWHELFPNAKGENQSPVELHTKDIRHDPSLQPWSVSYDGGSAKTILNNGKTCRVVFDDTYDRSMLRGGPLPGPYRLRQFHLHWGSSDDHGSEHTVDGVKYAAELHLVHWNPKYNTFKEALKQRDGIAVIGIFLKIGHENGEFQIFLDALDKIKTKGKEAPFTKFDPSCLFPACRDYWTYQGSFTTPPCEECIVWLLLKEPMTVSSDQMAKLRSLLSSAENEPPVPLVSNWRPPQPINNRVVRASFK

Sequence of Carbonic anhydrase 5B, mitochondrial (Q9Y2D0 whole entry): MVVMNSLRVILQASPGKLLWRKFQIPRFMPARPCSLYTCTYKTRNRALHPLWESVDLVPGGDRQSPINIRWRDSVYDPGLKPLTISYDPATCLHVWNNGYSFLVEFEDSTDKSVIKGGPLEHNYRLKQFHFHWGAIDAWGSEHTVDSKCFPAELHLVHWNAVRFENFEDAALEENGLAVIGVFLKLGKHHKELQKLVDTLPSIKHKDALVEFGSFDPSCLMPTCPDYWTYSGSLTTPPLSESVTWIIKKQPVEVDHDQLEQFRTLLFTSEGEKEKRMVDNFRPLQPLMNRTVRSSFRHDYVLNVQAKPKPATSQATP
Sequence of Carbonic anhydrase 6 (P23280 whole entry): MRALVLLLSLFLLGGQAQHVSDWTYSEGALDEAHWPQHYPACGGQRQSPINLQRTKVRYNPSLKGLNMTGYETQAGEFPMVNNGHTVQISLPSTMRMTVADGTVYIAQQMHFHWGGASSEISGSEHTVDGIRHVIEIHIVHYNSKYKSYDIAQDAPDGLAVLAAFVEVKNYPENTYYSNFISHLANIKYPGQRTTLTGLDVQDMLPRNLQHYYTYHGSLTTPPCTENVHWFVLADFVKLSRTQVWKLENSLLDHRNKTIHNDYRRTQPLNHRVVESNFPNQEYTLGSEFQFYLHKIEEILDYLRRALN

Compound	Ki [1] [µM]	Ki [2] [µM]	Ki [3] [µM]	Ki [4] [µM]
CC(=O)OC[C@H]1O[C@@H](CC(=O)/C=C/c2cccc(O)c2)[C@H](OC(C)=O)[C@@H](OC(C)=O)[C@@H]1OC(C)=O	–	–	5.2	> 100
CC(=O)OC[C@H]1O[C@@H](CC(=O)/C=C/c2ccc(O)cc2)[C@H](OC(C)=O)[C@@H](OC(C)=O)[C@@H]1OC(C)=O	–	–	5.9	> 100
O=C(/C=C/c1cccc(O)c1)C[C@@H]1O[C@H](CO)[C@@H](O)[C@H](O)[C@H]1O	–	> 100	4.5	> 100
CC(=O)OC[C@H]1O[C@@H](CC(=O)/C=C/c2cccc(O)c2)[C@H](OC(C)=O)[C@@H](OC(C)=O)[C@H]1OC(C)=O	–	–	3.3	> 100

Continued by falling Ki [3], values first:

Ki [1] [µM]	Ki [2] [µM]	Ki [3] [µM]	Ki [4] [µM]	Compound
–	> 100	9.2	> 100	O=C(/C=C/c1cccc(O)c1)C[C@@H]1O[C@H](CO)[C@H](O)[C@H](O)[C@H]1O
> 100	> 100	8.2	8.4	O=C(/C=C/c1ccc(O)cc1)C[C@@H]1O[C@H](CO)[C@H](O)[C@H](O)[C@H]1O
> 100	> 100	8.2	> 100	O=C(/C=C/c1ccc(O)cc1)C[C@@H]1O[C@H](CO)[C@@H](O)[C@H](O)[C@H]1O
–	–	2.9	> 100	CC(=O)OC[C@H]1O[C@@H](CC(=O)/C=C/c2ccc(O)cc2)[C@H](OC(C)=O)[C@@H](OC(C)=O)[C@H]1OC(C)=O

Reference: ChEMBL document CHEMBL2331241, “Synthesis of C-cinnamoyl glycosides and their inhibitory activity against mammalian carbonic anhydrases” (Bioorg Med Chem, 2013)
